Holding throughout (assay): relative viability (nuclei count vs DMSO), 5 days (fraction); higher = more cells survive
Compound in test [1]: CN(C)CC1=CC(=CC=C1)N=C(C2=CC=CC=C2)C3=C(NC4=C3C=CC(=C4)C(=O)N(C)C)O + Cc1nc(Nc2ncc(C(=O)Nc3c(C)cccc3Cl)s2)cc(N2CCN(CCO)CC2)n1 [Dasatinib] (partner 0.075 µM)
Put shortly: (§1)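 After 5 days of treatment, lung cancer cells in 1536-well plates were fixed and stained in a single step (final 0.05% Triton X-100, 1% formaldehyde, 1 ug/ml Hoechst) and their nuclei counted on 4× images. Treatment had been applied by pin tool the day after seeding as one drug alone or as a fixed anchor-drug dose with five library-drug doses (not always all listed) in √10 steps. Relative viability is the nuclei count of treated wells divided by that of vehicle wells, and values are medians of duplicate plates.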

Compound in test [2]: CN(C)CC1=CC(=CC=C1)N=C(C2=CC=CC=C2)C3=C(NC4=C3C=CC(=C4)C(=O)N(C)C)O + Nc1ncn([C@H]2C[C@H](O)[C@@H](CO)O2)c(=O)n1 [Decitabine] (partner 2 µM)
Put shortly: as §1

Compound in test [3]: CN(C)CC1=CC(=CC=C1)N=C(C2=CC=CC=C2)C3=C(NC4=C3C=CC(=C4)C(=O)N(C)C)O + COc1cc2c(Oc3ccc(NC(=O)C4(C(=O)Nc5ccc(F)cc5)CC4)cc3F)ccnc2cc1OCCCN1CCOCC1 [Foretinib] (partner 0.25 µM)
A digest of the protocol: as §1

Compound in test [4]: CN(C)CC1=CC(=CC=C1)N=C(C2=CC=CC=C2)C3=C(NC4=C3C=CC(=C4)C(=O)N(C)C)O + CCNC(=O)c1noc(-c2cc(C(C)C)c(O)cc2O)c1-c1ccc(CN2CCOCC2)cc1 [Luminespib] (partner 0.01 µM)
Put shortly:
as §1

With 201T, the relative viability amounted to 0.544 in test [1] (first compound 0.08 µM); 0.603 in test [1] (first compound 0.253 µM); 0.575 in test [1] (first compound 0.8 µM); 0.54 in test [1] (first compound 2.53 µM); 0.493 in test [1] (first compound 8 µM); 0.836 in test [2] (first compound 0.08 µM). The relative viability turned out to be 0.874 in test [2] (first compound 0.253 µM); 0.849 in test [2] (first compound 0.8 µM); 0.855 in test [2] (first compound 2.53 µM); 0.738 in test [2] (first compound 8 µM); 1.12 in test [3] (first compound 0.08 µM); 1.01 in test [3] (first compound 0.253 µM). Besides, the relative viability in test [3] (first compound 0.8 µM) was determined as 1.07; in test [3] (first compound 2.53 µM), 0.957; in test [3] (first compound 8 µM), 0.774; in test [4] (first compound 0.08 µM), 1.06; in test [4] (first compound 0.253 µM), 0.993; in test [4] (first compound 0.8 µM), 1.01. In addition, the relative viability was 1.05 in test [4] (first compound 2.53 µM) and 0.802 in test [4] (first compound 8 µM).

Regarding A549, the relative viability in test [2] (first compound 0.253 µM) is 0.286; in test [2] (first compound 0.8 µM) it was 0.27; in test [2] (first compound 2.53 µM), 0.223; in test [2] (first compound 8 µM) it was 0.246; in test [3] (first compound 0.08 µM), 0.988; in test [3] (first compound 0.253 µM) it was 0.927. Also, the relative viability was 0.948 in test [3] (first compound 0.8 µM), 0.899 in test [3] (first compound 2.53 µM) and 1.02 in test [3] (first compound 8 µM).

Turning to A-427, the relative viability in test [1] (first compound 0.08 µM) was 0.741; in test [1] (first compound 0.253 µM) it was 0.698; in test [1] (first compound 0.8 µM) it was 0.653; in test [1] (first compound 2.53 µM) it was 0.791; in test [1] (first compound 8 µM) it was 0.679; in test [2] (first compound 0.08 µM), 0.562. Moreover, the relative viability in test [2] (first compound 0.253 µM) is 0.614; in test [2] (first compound 0.8 µM) it was 0.547; in test [2] (first compound 2.53 µM), 0.554; in test [2] (first compound 8 µM), 0.534; in test [3] (first compound 0.08 µM), 1.07; in test [3] (first compound 0.253 µM), 1.17. Besides, the relative viability worked out at 1.07 in test [3] (first compound 0.8 µM); 0.986 in test [3] (first compound 2.53 µM); 0.883 in test [3] (first compound 8 µM); 0.995 in test [4] (first compound 0.08 µM); 0.929 in test [4] (first compound 0.253 µM); 1 in test [4] (first compound 0.8 µM). The relative viability in test [4] (first compound 2.53 µM) was found to be 0.667; in test [4] (first compound 8 µM) it was 0.756.

On to ABC-1, for which the relative viability was 0.619 in test [1] (first compound 0.08 µM); 0.617 in test [1] (first compound 0.253 µM); 0.557 in test [1] (first compound 0.8 µM); 0.605 in test [1] (first compound 2.53 µM); 0.577 in test [1] (first compound 8 µM); 1.38 in test [2] (first compound 0.08 µM). Moreover, the relative viability in test [2] (first compound 0.253 µM) turned out to be 0.939; in test [2] (first compound 0.8 µM), 1.2; in test [2] (first compound 2.53 µM), 0.99; in test [2] (first compound 8 µM), 0.904; in test [3] (first compound 0.08 µM) it was 1.31; in test [3] (first compound 0.253 µM), 1.12. Moreover, the relative viability in test [3] (first compound 0.8 µM) is 0.851; in test [3] (first compound 2.53 µM), 1; in test [3] (first compound 8 µM), 1.28; in test [4] (first compound 0.08 µM), 0.609; in test [4] (first compound 0.253 µM), 0.618; in test [4] (first compound 0.8 µM), 0.422. In addition, the relative viability in test [4] (first compound 2.53 µM) is 0.445; in test [4] (first compound 8 µM), 0.552.

Regarding BEN, the relative viability came to 0.307 in test [1] (first compound 0.08 µM); 0.284 in test [1] (first compound 0.253 µM); 0.396 in test [1] (first compound 0.8 µM); 0.487 in test [1] (first compound 2.53 µM); 0.336 in test [1] (first compound 8 µM); 0.674 in test [2] (first compound 0.08 µM). Moreover, the relative viability in test [2] (first compound 0.253 µM) was 0.913; in test [2] (first compound 0.8 µM), 0.787; in test [2] (first compound 2.53 µM) it was 0.69; in test [2] (first compound 8 µM), 0.771; in test [3] (first compound 0.08 µM), 0.705; in test [3] (first compound 0.253 µM), 0.68. For the same cell line, the relative viability in test [3] (first compound 0.8 µM) was 0.641; in test [3] (first compound 2.53 µM) it was 0.68; in test [3] (first compound 8 µM), 0.596; in test [4] (first compound 0.08 µM) it was 0.338; in test [4] (first compound 0.253 µM), 0.269; in test [4] (first compound 0.8 µM), 0.312. The relative viability in test [4] (first compound 2.53 µM) was found to be 0.212; in test [4] (first compound 8 µM), 0.437.

Regarding CAL-12T, the relative viability in test [1] (first compound 0.08 µM) came out at 0.488; in test [1] (first compound 0.253 µM), 0.48; in test [1] (first compound 0.8 µM), 0.421; in test [1] (first compound 2.53 µM), 0.363; in test [1] (first compound 8 µM) it was 0.304; in test [3] (first compound 0.08 µM), 1.09. Also, the relative viability in test [3] (first compound 0.253 µM) was 1.22; in test [3] (first compound 0.8 µM), 1.44; in test [3] (first compound 2.53 µM), 0.864; in test [3] (first compound 8 µM), 1.29; in test [4] (first compound 0.08 µM) it was 0.27; in test [4] (first compound 0.253 µM) it was 0.451. Besides, the relative viability in test [4] (first compound 0.8 µM) worked out at 0.877; in test [4] (first compound 2.53 µM), 0.542; in test [4] (first compound 8 µM), 0.376.

Take COR-L23: the relative viability in test [1] (first compound 0.08 µM) is 0.54; in test [1] (first compound 0.253 µM), 0.469; in test [1] (first compound 0.8 µM), 0.596; in test [1] (first compound 2.53 µM), 0.423; in test [1] (first compound 8 µM) it was 0.566; in test [2] (first compound 0.08 µM), 0.442. In addition, the relative viability in test [2] (first compound 0.253 µM) is 0.422; in test [2] (first compound 0.8 µM) it was 0.433; in test [2] (first compound 2.53 µM), 0.429; in test [2] (first compound 8 µM), 0.401; in test [3] (first compound 0.08 µM) it was 1.08; in test [3] (first compound 0.253 µM) it was 0.972. The relative viability in test [3] (first compound 0.8 µM) was 1.03; in test [3] (first compound 2.53 µM), 0.88; in test [3] (first compound 8 µM), 0.925; in test [4] (first compound 0.08 µM), 0.752; in test [4] (first compound 0.253 µM), 0.787; in test [4] (first compound 0.8 µM), 0.791. The relative viability amounted to 0.523 in test [4] (first compound 2.53 µM) and 0.665 in test [4] (first compound 8 µM).

As to COR-L 105, the relative viability in test [1] (first compound 0.08 µM) turned out to be 0.394; in test [1] (first compound 0.253 µM), 0.369; in test [1] (first compound 0.8 µM) it was 0.307; in test [1] (first compound 2.53 µM), 0.314; in test [1] (first compound 8 µM), 0.328; in test [2] (first compound 0.08 µM), 1.12. Further, the relative viability in test [2] (first compound 0.253 µM) worked out at 0.621; in test [2] (first compound 0.8 µM), 0.635; in test [2] (first compound 2.53 µM), 0.667; in test [2] (first compound 8 µM) it was 0.628; in test [3] (first compound 0.08 µM) it was 1.1; in test [3] (first compound 0.253 µM), 1.05. The relative viability in test [3] (first compound 0.8 µM) was 0.967; in test [3] (first compound 2.53 µM) it was 0.926; in test [3] (first compound 8 µM), 0.991; in test [4] (first compound 0.08 µM), 0.865; in test [4] (first compound 0.253 µM) it was 0.688; in test [4] (first compound 0.8 µM), 0.567. The relative viability in test [4] (first compound 2.53 µM) was 1.23; in test [4] (first compound 8 µM) it was 0.622.

For the cell line Calu-6, the relative viability is 0.923 in test [3] (first compound 0.08 µM); 0.882 in test [3] (first compound 0.253 µM); 0.948 in test [3] (first compound 0.8 µM); 0.906 in test [3] (first compound 2.53 µM); 0.929 in test [3] (first compound 8 µM).

These data come from the supplement of paper PMC10307832.
